According to patent publication US7582638B2, “Pyrazole-isoquinoline urea derivatives as p38 kinase inhibitors” (Eli Lilly and Company, priority 2005, dated 2009):

Experiments:
TNFα [1] = experiment: Effect on intra-articular LPS induced TNFα (synovial lavage fluid); format: in vivo; conditions: female Lewis rats, oral, intra-articular LPS 10 μg one hour later, lavage after two hours
Experimental: Intra-articular injection of LPS into rat ankles induces the synthesis of TNFα, which can be measured in synovial lavage fluid. High levels of TNFα are detectable within 2 hours. Since the joint is the site where arthritis develops, this model can rapidly determine whether an orally administered compound has an effect on an inflammatory response in the synovium.
Six female Lewis rats (150-200 g) are place in each treatment group. The animals are given vehicle (1% NaCarboxylnethylcellulose-0.25% Tween 80) or test compound (1 mg/kg, 3 mg/kg, 10 mg/kg, and 30 mg/kg) orally. One hour later, 10 μl LPS (10 μg) is administered intra-articularly into the right ankle of each rat, while the left ankle receives 10 μL of saline. After two hours, each ankle is lavaged with 100 μL of saline. The lavage is collected and stored at −80° C. • Group#1: Vehicle (1%/NaCMC-0.25% Tween 80, 1 mL, PO) • Group#2: Test compound (1 mg/kg, 1 mL, PO) • Group#3: Test compound (3 mg/kg, 1 mL, PO) • Group#4: Test compound (10 mg/kg, 1 mL, PO) • Group#5: Test compound (30 mg/kg, 1 mL, PO)
TNFα is measured with a commercially available ELISA kit (R&D, RTA00).

pMAPKAPK2 = experiment: Inhibition of p-MAPKAPK2 in vitro (anisomycin-stimulated RAW 264.7 cells, ELISA); format: cell-based, murine; conditions: Mus musculus, RAW264.7, 2 hours compound, anisomicin 100 ug/ml 30 minutes, read-out: IC50, inhibition of pMAPKAPK2 enzyme production
Experimental: RAW 264.7 cells (a murine monocytic/macrophage line ATCC) are seeded at a density of 50,000 cells/well in 96-well plates with RPMI-1640 medium plus 10% fetal bovine serum (FBS) and allowed to settle and adhere to the bottom of the well for 48 hours. After reaching confluence, cells are treated for 2 hours with 10 serial dilutions of different compounds. A control compound is always included. After 2 hours, anisomicin (100 ug/ml) is added and cells are incubated for 30 minutes at 37° C. under a 5% CO2 atmosphere. Then, cells are fixed and treated with hydrogen peroxide in order to remove endogenous peroxidase. Finally, plates are blocked with FBS, washed, and an ELISA assay is carried out by using an antiphospho-MAPKAPK2 (Thr 334, Cell Signalling, Cat # 3041) antibody and ahP-Conjugated Secondary Antibody. This reaction is detected by using FEMTO (Pierce) which is an enhanced chemiluminiscent substrate ahP that results in rapid kinetic light output and high signal intensity. The compound exemplified in Example 12 is tested essentially as described above and is found to inhibit the pMAPKAPK2 enzyme production with an IC50 of 7 nM.

Oral exposure = format: in vivo; conditions: rat, 1 mg/kg, male Fischer 344 rats, fasted, gavage, suspension 1 mg/mL at 1 mL/kg, plasma
Experimental: Compounds are screened for oral exposure in male Fischer 344 rats. Animals are fasted overnight and administered test compounds prepared as suspensions in sodium carboxymethylcellulose (1% w/v) containing Tween 80 (0.25% v/v) and antifoam (0.1% w/v). Dose suspensions are prepared at 1 mg/mL and administered at 1 mL/kg by gavage. Blood samples are taken between 0.5 h and 7 h after dose administration and plasma are prepared by centrifugation. Plasma samples are analyzed using online solid phase extraction and LC/MS/MS.

TNFα [2] = experiment: Inhibition of TNFα in vivo (LPS challenge, plasma TNFα ELISA); conditions: female Balb/c mice, p.o., LPS 400 μg/kg IP 1 hour after compound, plasma 1.5 hours after LPS
Experimental: Compounds are administered p.o. (30, 10, 3 and 1 mg/kg) to female Balb/c mice (6 mice/dose). 1 hour following compound administration at 4 doses (P.O. at volume of 0.1 mL/mouse; vehicle: 1% NaCMC/0.25% Tween-80 in water); mice are given an IP-injection of LPS at 400 μg/kg. 1.5 hours after LPS challenging, mice are anesthetized with isoflurane and blood is taken via cardiac puncture. TNFa-levels in the plasma are determined using ELISA kit from R&D Systems and dose response ED50 is determined.
The compound exemplified in Example 12 is tested essentially as described above and suppressed TNFα in vivo with an TMED50 of 1.0 mg/kg. The Threshold Minimum Effective Dose (TMED) 50 is the dose at which greater than or equal to 50% inhibition was achieved and statistically different from control/placebo.

p-MAPKAPK2 = experiment: Anisomycin-stimulated mice ex-vivo phospho-MAPKAPK2 inhibition assay by flow cytometry; format: in vivo; conditions: female Balb/c mice, po, blood after 2 hours, ex vivo anisomycin 10 μg/ml, CD11b+Ly6G- cells
Experimental: Female Balb/c mice with 8-10 week-old age are purchased from Taconic Inc. and dosed po with 0.2 mL volume of compounds at the concentrations of 30, 10, 3, 1 mg/kg. Blood is obtained from cardiac puncture after 2 hours or other indicated time periods and collected in EDTA-containing tubes. 100 μL of blood is incubated at 37° C. for 10 minutes. Whole blood is then mixed with FITC-conjugated rat anti-mouse Ly-6G mAb (1:250) and APC-conjugated rat anti-mouse CD11b mAb (1:100) and stimulated with 10 μg/ml anisomycin. Both cell surface antigen staining and anisomycin stimulation is conducted at 37° C. for 15 min and followed up with Lyse/Fix buffer (BD Biosciences, Cat# 558049) for 10 min at room temperature. Lysed blood samples are spun down at 600×g for 8 minutes at room temperature with additional wash once by 4 mL PBS. 200 μL of diluted anti-Phospho-MAPKAPK-2 (Thr334) antibody (1:100 dilution) (Cell Signaling, Cat# 3041) and mouse BD Fc Block (1:100 dilution) (BD Biosciences, 553141) in permeabilization Medium B (Caltag, Cat# GAS002S-5) are added into blood cells and incubate at room temperature for 30 min. After the incubation, 3 mL of stain/wash buffer is added and cells are spanned down as described above with additional wash with 3 ml stain/wash buffer. […] Mean fluorescence of phosphono-MapKap-K2 staining is measured on gated CD11b+Ly6G-cells. […]

IC50 (pMAPKAPK2): 7 nM | Cmax (Oral exposure): 9390 ng/mL | AUC(0-t) (Oral exposure; read-out: AUC (0-7 h)): 36800 ng·h/mL
Structure (SMILES): CS(=O)(=O)O.Cc1ccc(-n2nc(C3(C)CC3)cc2NC(=O)Nc2cnc(OC3CCN(C(=O)C4(C)CC4)CC3)c3ccccc23)cc1 [Example 12, 1-{1-[1-(1-Methyl-cyclopropanecarbonyl)-piperidin-4-yloxy]-isoquinolin-4-yl}-3-[5-(1-methyl-cyclopropyl)-2-p-tolyl-2H-pyrazol-3-yl]-urea mesylate]
TMED50, inhibition of TNFα synthesis in the synovial lavage fluid (TNFα [1]): 2.54 mg/kg | TMED50, suppression of TNFα in vivo (TNFα [2]): 1.0 mg/kg | TMED50, inhibition of p-MAPKAPK2 synthesis (p-MAPKAPK2): 2.20 mg/kg
